Molecules are shown by their SMILES. Read-outs that look alike come from different tables or passages of the source. Starred links: 1 amine or outer side, 2 acyl side, 3 side chain; linkers in the order of their positions; H or OH if unused. Non-standard residues stand in square brackets, D forms with d. Residues, ends and D or L forms follow the SMILES beside them. *: point of attachment. X4 = Cc1cc(F)cc(-c2cnc(NCCNC(=O)CCOCCOCCOCCOCCC(=O)*)c(-c3nc4ccc(Cl)cc4[nH]3)c2N2CCC(N)CC2)c1; Dolaproine = CO[C@@H]([C@@H]1CCCN1)[C@@H](C)C(=O)O; Dil = CC[C@H](C)[C@H](NC)[C@@H](CC(=O)O)OC; PABC = O=C(OCc1ccc(N[*:1])cc1)[*:2]; X2 = C[C@@H](N*)[C@@H](O)c1ccccc1; Cit = NC(=O)NCCC[C@H](N)C(=O)O; NMeV = CN[C@H](C(=O)O)C(C)C

Holding throughout (assay type): cell-based
The target in assay [1] is T1, human somatostatin receptor subtype 2 (Homo sapiens, UniProt P30874).
T1 construct: expressed in transfected cells
Briefly: Functional cAMP assay for SSTR2 agonists (HTRF) in CHO-K1 cells. The note with it: CHO-K1 cells stably expressing human SST2, 20 min. In short, it runs like this: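 Agonism scored as loss of NKH477 (1.6 μM)-driven cAMP, with IBMX present, after 20 min, 37° C. exposure of stably transfected CHO-K1 cells to compound dilutions (typically 0-10,000 nM). Lysates read by time-resolved FRET; cAMP interpolated from standard curve and EC50 derived.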
A general note: Changes in cAMP serve as a functional read-out for many G protein-coupled receptors.

Another assay addresses T2, SST2 (Homo sapiens, UniProt P30874).
T2 construct: host or cells: PathHunter CHO-K1 SST2 cells
Briefly: PathHunter CHO-K1 SST2 internalization assay. The note with it: PathHunter CHO-K1 SST2, 90 min. In short, it runs like this:
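IC50 comes from four-parameter curves on background-corrected duplicates of Beta-Glo luminescence, read after 60 min at room temperature in the dark. Before that, CHO-K1 SST2 internalization cells (48 h post-seeding) received SMDC as eleven threefold dilutions, 10 uM highest final, for 90 min at 37 C.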

Assay [2] has as its system NCI-H524 (ATCC) human small cell lung cancer cells. An outline of the steps: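 CellTiter-Glo luminescence after a 2 h SMDC pulse (top dose 1 uM, 2-fold dilutions, 11 points), medium wash, then 70 h recovery. Cells were seeded at 5,000/well and dosed 24 h later. % inhibition vs control gave IC50 via four-parameter fit.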

T1 sequence (P30874 whole entry): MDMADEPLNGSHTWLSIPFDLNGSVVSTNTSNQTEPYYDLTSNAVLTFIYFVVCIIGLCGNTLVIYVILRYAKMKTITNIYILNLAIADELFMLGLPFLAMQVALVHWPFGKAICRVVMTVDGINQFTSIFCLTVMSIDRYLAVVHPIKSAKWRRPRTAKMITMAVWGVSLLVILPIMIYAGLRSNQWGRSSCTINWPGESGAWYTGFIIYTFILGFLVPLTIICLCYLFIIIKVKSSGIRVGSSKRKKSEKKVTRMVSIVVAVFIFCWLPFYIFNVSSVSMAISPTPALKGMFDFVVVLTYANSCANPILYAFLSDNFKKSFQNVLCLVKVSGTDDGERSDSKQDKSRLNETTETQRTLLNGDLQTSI
T2 sequence (P30874 whole entry): as above

As a reminder, the EC50 is the concentration needed to bring the measured effect to its halfway point. As for `CC[C@H](C)[C@@H]([C@@H](CC(=O)N1CCC[C@H]1[C@H](OC)[C@@H](C)C(=O)N[C@H](C)[C@@H](O)c1ccccc1)OC)N(C)C(=O)[C@@H](NC(=O)[C@H](C(C)C)N(C)C(=O)OCc1ccc(NC(=O)[C@H](C)NC(=O)[C@@H](NC(=O)CCOCCNCCNc2ncc(-c3cc(C)cc(F)c3)c(N3CCC(N)CC3)c2-c2nc3ccc(Cl)cc3[nH]2)C(C)C)c(O[C@@H]2O[C@H](C(=O)O)[C@@H](O)[C@H](O)[C@H]2O)c1)C(C)C` [Compound 130], the EC50 in assay [1] (read-out: hSST2 cAMP Avg EC50) is 0.29 nM; on SST2 (read-out: Internalization EC50), 25 nM; in assay [2] (2 h), 140 nM.
In the same order, the values of `CC[C@H](C)[C@@H]([C@@H](CC(=O)N1CCC[C@H]1[C@H](OC)[C@@H](C)C(=O)N[C@H](C)[C@@H](O)c1ccccc1)OC)N(C)C(=O)[C@@H](NC(=O)[C@H](C(C)C)N(C)C(=O)OCc1ccc(NC(=O)[C@H](CCCNC(N)=O)NC(=O)[C@@H](NC(=O)[C@H](CCC(=O)O)NC(=O)CCOCCC(=O)NCCNc2ncc(-c3cc(C)cc(F)c3)c(N3CCC(N)CC3)c2-c2nc3ccc(Cl)cc3[nH]2)C(C)C)c(O[C@@H]2O[C@H](C(=O)O)[C@@H](O)[C@H](O)[C@H]2O)c1)C(C)C` [Compound 143] are 0.14 nM, 3 nM and 100 nM.
In the same order, the values of `COc1cc2cc(c1Cl)N(C)C(=O)CC(OC(=O)[C@@H](C)N(C)C(=O)CCSSCCNC(=O)CN1CCN(CC(=O)O)CCN(CC(=O)NCCNc3ncc(-c4cc(C)cc(F)c4)c(N4CCC(N)CC4)c3-c3nc4ccc(Cl)cc4[nH]3)CC1)[C@]1(C)OC1[C@@H](C)C1C[C@@](O)(NC(=O)O1)[C@H](OC)/C=C/C=C(\C)C2` (stereo partly drawn) [Compound 9] are 0.13 nM, 7.7 nM and 379 nM.
Turning to `CC[C@H](C)[C@@H]([C@@H](CC(=O)N1CCC[C@H]1[C@H](OC)[C@@H](C)C(=O)N[C@H](C)[C@@H](O)c1ccccc1)OC)N(C)C(=O)[C@@H](NC(=O)[C@H](C(C)C)N(C)C(=O)OCc1ccc(NC(=O)[C@H](C)NC(=O)[C@@H](NC(=O)CCOCCNCCC(=O)NCCNc2ncc(-c3cc(C)cc(F)c3)c(N3CCC(N)CC3)c2-c2nc3ccc(Cl)cc3[nH]2)C(C)C)c(O[C@@H]2O[C@H](C(=O)O)[C@@H](O)[C@H](O)[C@H]2O)c1)C(C)C` [Compound 156], the EC50 was found to be 0.24 nM in assay [1] (read-out: hSST2 cAMP Avg EC50), 25 nM at SST2 (read-out: Internalization EC50) and 76 nM in assay [2] (2 h).
On the same counts, the results for `CC[C@H](C)[C@@H]([C@@H](CC(=O)N1CCC[C@H]1[C@H](OC)[C@@H](C)C(=O)N[C@H](C)[C@@H](O)c1ccccc1)OC)N(C)C(=O)[C@@H](NC(=O)[C@H](C(C)C)N(C)C(=O)OCc1ccc(NC(=O)[C@H](CCCNC(N)=O)NC(=O)[C@@H](NC(=O)[C@H](CCC(=O)O)NC(=O)CCOCCOCCOCCOCCC(=O)NCCNc2ncc(-c3cc(C)cc(F)c3)c(N3CCC(N)CC3)c2-c2nc3ccc(Cl)cc3[nH]2)C(C)C)cc1C(=O)NC)C(C)C` [Compound 53] are 0.16 nM, 13 nM and 100 nM.
On the same counts, the results for `CC[C@H](C)[C@@H]([C@@H](CC(=O)N1CCC[C@H]1[C@H](OC)[C@@H](C)C(=O)N[C@H](C)[C@@H](O)c1ccccc1)OC)N(C)C(=O)[C@@H](NC(=O)[C@H](C(C)C)N(C)C(=O)OCc1ccc(NC(=O)[C@H](CCCNC(N)=O)NC(=O)[C@@H](NC(=O)CCOCCC(=O)NCCNc2ncc(-c3cc(C)cc(F)c3)c(N3CCC(N)CC3)c2-c2nc3ccc(Cl)cc3[nH]2)C(C)C)cc1C(N)=O)C(C)C` [Compound 122] are 0.18 nM, 3.8 nM and 7.9 nM.
For the compound `CC[C@@]1(O)C(=O)OCc2c1cc1n(c2=O)Cc2c-1nc1cc(F)c(C)c3c1c2[C@@H](NC(=O)OCc1ccc(NC(=O)[C@H](CCCNC(N)=O)NC(=O)[C@@H](NC(=O)CCOCCOCCOCCOCCC(=O)NCCNc2ncc(-c4cc(C)cc(F)c4)c(N4CCC(N)CC4)c2-c2nc4ccc(Cl)cc4[nH]2)C(C)C)cc1)CC3` [Compound 38], the half-maximal effective concentration (EC50) amounted to 0.11 nM in assay [1] (hSST2 cAMP Avg EC50 (nM)); 1 nM at SST2 (Internalization EC50 (nM)); 59.4 nM in assay [2] (2 h treatment, washout, additional 70 h, read-out: H524 EC50).
In the case of `CC[C@@H](C)[C@H]([C@H](CC(=O)N1CCC[C@@H]1[C@@H](OC)[C@H](C)C(=O)N[C@@H](C)[C@H](O)c1ccccc1)OC)N(C)C(=O)C(NC(=O)[C@@H](C(C)C)N(C)C(=O)OCc1ccc(NC(=O)[C@H](CCCNC(N)=O)NC(=O)[C@@H](NC(=O)CCOCCNC(=O)[C@H](CS(=O)(=O)O)NC(=O)CCOCCOCCOCCOCCC(=O)NCCNc2ncc(-c3cc(C)cc(F)c3)c(N3CCC(N)CC3)c2-c2nc3ccc(Cl)cc3[nH]2)C(C)C)cc1)C(C)C` (stereo partly drawn) [Compound 44], the concentration giving a half-maximal response (EC50) in assay [1] (read-out: hSST2 cAMP Avg EC50) was 0.089 nM; at SST2 (read-out: Internalization EC50), 17.2 nM; in assay [2] (2 h), 101 nM.
In the same order, the values of `CC[C@H](C)[C@@H]([C@@H](CC(=O)N1CCC[C@H]1[C@H](OC)[C@@H](C)C(=O)N[C@H](C)[C@@H](O)c1ccccc1)OC)N(C)C(=O)[C@@H](NC(=O)[C@H](C(C)C)N(C)C(=O)OCc1ccc(NC(=O)[C@H](CCCNC(N)=O)NC(=O)[C@@H](NC(=O)CCOCCNC(=O)CN2CCN(CC(=O)O)CCN(CC(=O)NCCNc3ncc(-c4cc(C)cc(F)c4)c(N4CCC(N)CC4)c3-c3nc4ccc(Cl)cc4[nH]3)CC2)C(C)C)cc1)C(C)C` [Compound 37] are 0.071 nM, 13.7 nM and 102 nM.
In the same order, the values of `CC[C@H](C)[C@@H]([C@@H](CC(=O)N1CCC[C@H]1[C@H](OC)[C@@H](C)C(=O)N[C@H](C)[C@@H](O)c1ccccc1)OC)N(C)C(=O)[C@@H](NC(=O)[C@H](C(C)C)N(C)C(=O)OCc1ccc(NC(=O)[C@H](CCCNC(N)=O)NC(=O)[C@@H](NC(=O)[C@H](CCC(N)=O)NC(=O)[C@H](CCC(=O)O)NC(=O)CCOCCOCCOCCOCCC(=O)NCCNc2ncc(-c3cc(C)cc(F)c3)c(N3CCC(N)CC3)c2-c2nc3ccc(Cl)cc3[nH]2)C(C)C)cc1)C(C)C` [Compound 119] (X4-EQV[Cit][PABC][NMeV]V[Dil][Dolaproine]-X2) are 0.14 nM, 5.4 nM and 16 nM.
In the same order, the values of `COc1cc2cc(c1Cl)N(C)C(=O)CC(OC(=O)[C@@H](C)N(C)C(=O)CCSSCCC(=O)NCCNc1ncc(-c3cc(C)cc(F)c3)c(N3CCC(N)CC3)c1-c1nc3ccc(Cl)cc3[nH]1)[C@]1(C)OC1[C@@H](C)C1C[C@@](O)(NC(=O)O1)[C@H](OC)/C=C/C=C(\C)C2` (stereo partly drawn) [Compound 20, (2S,5S,6S,16E,18E,20R,21S)-11-chloro-21-hydroxy-12,20-dimethoxy-2,5,9,16-tetramethyl-8,23-dioxo-4,24-dioxa-9,22-diazatetracyclo[19.3.1.1^10,^14.0^3,^5]hexacosa-10,12,14(26),16,18-pentaen-6-yl (2R)-2-[3-({2-[(2-{[4-(4-aminopiperidin-1-yl)-3-(6-chloro-1H-1,3-benzodiazol-2-yl)-5-(3-fluoro-5-methylphenyl)pyridin-2-yl]amino}ethyl)-carbamoyl]ethyl}disulfanyl)-N-methylpropanamido]propanoate] are 0.27 nM, 6.3 nM and 31.6 nM.

For the origin of these results see patent US12134610B2, “Somatostatin subtype-2 receptor (SST2R) targeted therapeutics and uses thereof” (priority 2022, dated 2024).
